Values quoted from earlier work as cited in patent US20040192601A1, “Lipid binding molecules and methods of use” (priority 2002, published 2004).

System: PI3K
Conditions: W7 used at 100 μM; stated as a property of the calmodulin inhibitor

NCCCCCCNS(=O)(=O)c1cccc2c(Cl)cccc12 [W7]
Inhibition of PI3K activity: does not inhibit PI3K activity
